The structures appear in SMILES notation. “Also recorded” adds a separate entry of the source.

The results in this text go back to patent US10226514B2, “Methods and compositions for reducing blood glucose levels” (The Children's Medical Center Corporation, priority 2011, dated 2019).

Experiment [1] relates to XBP1s. Kind of experiment: XBP1s protein levels in Ad-XBP1s-infected MEFs (western blot). The experiment is classed as cell-based, mouse. How it is done: (§1) MEF cells were from American Type Tissue Collection (ATCC). These cells were grown in Dulbecco's Modified Eagel Medium (DMEM) supplemented with 10% fetal bovine serum (FBS), 10 U/ml penicillin and 1 μg/ml streptomycin at 37° C. and 5% CO2. Fao cells were maintained in RPMI 1640 medium (Invitrogen) supplemented with 10% fetal bovine serum (FBS), 10 U/ml penicillin and 1 μg/ml streptomycin.
(§2) Adenovirus expressing XBP1s T48A, XBP1s S61A, XBP1s T48A/S61A and MKK6Glu were produced with ViraPower Adenoviral Expression System (Invitrogen) according to manufacturer's instruction. Briefly, pAD-XBP1s T48A, pAD-XBP1s S61A, pAd-XBP1s T48A/S61A and pAd-MKK6Glu were linearized by restriction endonuclease digestion with PacI and transfected to 293A cells by Lipofectamine. The media was changed with fresh media every other day until the cytopathic effect was observed. When cytopathic effect reached to 80%, cells were collected by centrifugation. The pellet was resuspended in PBS and subjected to freezing and thawing cycles at −80° C. and 37° C. for 4 times. The supernatant containing the virus was prepared by centrifugation at 4,000 rpm for 20 min at room temperature. Ad-XBP s and Ad-Cre were generated as described previously (Ozcan, L., et al. (2009) Cell metabolism 9:35-51). For infection, cells were incubated with adenovirus in reduced volume of medium containing 1% FBS and antibiotics. Cells were gently rocked every 15 min for 1 h to increase efficiency of infection, and then fresh medium were added and cells were incubated for additional 15 h or 23 h.
Cells were lysed in lysis buffer (25 mM Tris-HCl, pH 7.4; 10 mM NaF; 10 mM Na4P207; 2 mM Na3VO4; 1 mM EGTA; 1 mM EDTA; 1% NP-40; 10 μg/ml Leupeptin; 10 μg/ml Aprotinin; 1 mM PMSF and 20 nM Okadaic acid). After 20 min-rotation at 4° C., cell lysates were centrifuged at 13,200 rpm for 20 min at 4° C. Supernatants were collected and protein concentration was quantified by using Protein Assay Kit (Bio-Rad). The concentrations of protein were normalized with lysis buffer to have equivalent amounts of protein and volume. Protein was denatured by boiling at 100° C. for 5 min in Laemmli buffer. The lysates were cooled to room temperature before loading for western blot analysis.
Western blot analysis was performed as previously described (Ozcan, L., et al. (2009) Cell metabolism 9:35-51). Samples from cell lysates or tissue lysates were resolved by SDS-PAGE and then transferred to polyvinylidene fluoride (PVDF) membrane. After 1 h blocking at room temperature using 10% blocking reagent (Roche), membrane was incubated overnight with primary antibody in Tris-buffered saline solution/Tween (TBST) containing 10% blocking reagent at 4° C. After the incubation, membrane was washed three times in TBST and incubated with secondary antibody for 1 h at room temperature. After three-time washing in TBST, membrane was developed using a chemiluminescence assay system (Roche) and exposed to Kodak films. Relative protein levels were quantified by Image J program.

In another experiment the test system is XBP1s mRNA. As to the kind of experiment: XBP1s mRNA levels and stability (Q-PCR, actinomycin D). The class given is cell-based, mouse. How it is done:
Total RNA was extracted from cells or animal tissues using Trizol reagent (Invitrogen) and transcribed into cDNA using cDNA synthesis kit (Bio-Rad). The gene expression analysis was performed with iQ5 Multicolor Real-Time PCR Detection System (Bio-Rad) with SYBR Green Supermix (Bio-Rad). The mRNA level was normalized to 18S as a house keeping gene. The primer sequences used were:
For mRNA stability determination, MEF cells were infected with Ad-XBP1s. Sixteen hour after the infection, cells were treated with anisomycin (25 ng/ml) or vehicle (DMSO) for 1 h. Actinomycin D (10 μg/ml, Sigma) was added to the medium. Cells were flash frozen in liquid nitrogen at various time points. mRNA levels were determined via Q-PCR.

Experiment [2] deals with XBP1s. As to the kind of experiment: XBP1s levels in Ad-XBP1s-infected Fao cells. The experiment is classed as cell-based. The settings on record: Ad-XBP1s-infected Fao cells (rat hepatoma). The method, then:
as §1
as §2, with “Ad-XBP s and Ad-Cre were generated as described previously (Ozcan, L., et al. (2009) Cell metabolism 9:35-51). For infection, cells were incubated with adenovirus in reduced volume of medium containing 1% FBS and antibiotics. Cells were gently rocked every 15 min for 1 h to increase efficiency of infection, and then fresh medium were added and cells were incubated for additional 15 h or 23 h.” left out
Western blot analysis was performed as previously described (Ozcan, L., et al. (2009) Cell metabolism 9:35-51). […] Relative protein levels were quantified by Image J program.

For a further experiment, the system named is p38 MAPK. As to the kind of experiment: p38 MAPK phosphorylation in anisomycin-treated knock-out cells. The class given is cell-based. The source says:
It is known that MAPK kinase kinase (MKK) 4 and 7 are upstream kinases responsible for JNK activation (Tournier, C., et al. (2001) Genes Dev 15:1419-1426; Brancho, D., et al. (2003) Genes Dev 17:1969-1978) and anisomycin or TNFα cannot activate JNK in MKK4 and 7 double knock out cells (MKK4,7^−/−) (Tournier, C., et al. (2001) Genes Dev 15:1419-1426; Schaeffer, H. J. & Weber, M. J. (1999) Mol Cell Biol 19:2435-2444). In order to determine whether XBP1s can be regulated by anisomycin treatment in MKK4,7^−/− cells, these cells, along with their controls, were treated with anisomycin after XBP is expression. […] Furthermore, the experiments were repeated in JNK1,2^−/− and MKK4,7^−/− cells with TNFα. […] Finally, an MKK7-JNK1 fusion protein, previously shown to be a specific activator of JNK (Lei, K., et al. (2002) Mol Cell Biol 22:4929-4942), was used to investigate whether activation of JNK alone can have effect on XBP1s.

The test system of experiment [3] is XBP1s. As to the kind of experiment: XBP1s phosphorylation at Thr48 and Ser61 in cells (MS/MS, phospho-specific antibodies). The experiment is classed as cell-based, mouse. The settings on record: anisomycin 25 ng/ml. How it is done: MEFs were infected with flag-tagged XBP1s expressing adenovirus and treated with anisomycin (25 ng/ml) for 2 h. Cells were washed with ice-cold PBS and lysed with RIPA buffer (50 mM Tris-HCl, pH 7.5; 2 mM EGTA; 0.3% CHAPS; 100 mM NaF; 10 mM Na4P2O7; 1 mM Na3VO4; 10 μg/ml Leupeptin; 10 μg/ml Aprotinin; 2 mM PMSF and 20 nM Okadaic acid). After overnight incubation with anti-flag antibody, Protein A sepharose beads were added for additional 2 h at 4° C. Immunoprecipates were washed three times with RIPA buffer containing 150 mM NaCl and boiled for 5 min in 2× Laemmli buffer for elution of immunoprecipitated XBP1s. Samples were resolved in SDS-PAGE and stained with Coomassie blue (Bio-Rad). Protein from Coomassie-stained gel bands was digested with trypsin and the resulting peptide mixtures were subjected to microcapillary liquid chomatography tandem mass spectrometry (LC-MS/MS). MS/MS spectra were assigned by searching them with the XBP1s protein sequence using the SEQUEST algorithm.
Similar results were obtained from XBP1s^Ser61 phosphorylation.

In the case of `COc1ccc(C[C@H]2NC[C@H](O)[C@H]2OC(C)=O)cc1` [anisomycin], the XBP1s protein levels entry is “robust increase in XBP1s protein levels” with XBP1s [1] (Ad-XBP1s-infected MEFs, increasing doses, two hours); “dramatically reduced” in the experiment with XBP1s [1] (Ad-XBP1s-infected MK2−/− cells vs control cells); “significant increase in XBP is protein” with XBP1s [1] (JNK1,2−/− cells). In addition, the XBP1s levels result in the experiment on XBP1s [1] (Ad-XBP1s-infected MKK3,6−/− cells) is recorded as “no increase in XBP1s levels”; in the experiment on XBP1s [1] (Ad-XBP1s-infected p38α−/− cells), “lacked the ability to upregulate XBP1s levels”; with XBP1s [1] (MKK4,7−/− cells), “dramatically increased XBP1s levels”; in the experiment on XBP1s [2] it was “dramatically upregulating their XBP1s levels”. Moreover, the “XBP1s proteins in Ad-LacZ-infected control cells” value in the experiment with XBP1s [1] (up to 25 ng/ml anisomycin) is recorded as “No upregulation of XBP1s proteins”. Besides, the “enhanced stability of XBP1s mRNA” value with XBP1s mRNA (MK2−/− cells, anisomycin 25 ng/ml) is listed as “completely lost”. The “XBP1s mRNA stability” value with XBP1s mRNA (TTP−/− cells, anisomycin 25 ng/ml one hour, actinomycin D 10 μg/ml) was “capable of increasing XBP1s mRNA stability”. Further, the “XBP1s mRNA levels” value with XBP1s mRNA (XBP1s expressing control cells, one hour) was “dramatic increase in mRNA of XBP1s; also recorded: increased the mRNA levels of XBP1s in a dose dependent manner”. For the same molecule, the “p38 MAPK phosphorylation” value in the experiment on p38 MAPK (JNK1,2−/− cells) was “marked increase in p38 MAPK phosphorylation”. Besides, the “p38 MAPK activation” value in the experiment on p38 MAPK (MKK4,7−/− cells) was “significantly increased”. For the same molecule, the “phosphorylation of XBP1s at Ser61” value in the experiment with XBP1s [3] is recorded as “increases phosphorylation of XBP1s at Ser61; also recorded: strongly induced phosphorylation of XBP1s at Ser61”. Also, the “phosphorylation of XBP1s at Thr48” value with XBP1s [3] is listed as “greatly increased phosphorylation of the Thr48 residue”.
